How the values were obtained:
[1] = test system: ER+ metastatic BC patient-derived samples; experiment: ALDEFLUOR assay (ALDH enzymatic activity) in metastatic patient-derived cells; assay type: cell-based, human; conditions: Tamoxifen 10^−6 M or Fulvestrant 10^−7 M, 7-9 days; seven out of nine patient samples
Procedure: Metastatic samples (ascites or pleural effusions) were centrifuged at 1000 g for 10 minutes at 4° C. The cell pellets were diluted in PBS. Erythrocytes and leucocytes were removed using Lymphoprep (Axis-Shield) and CD45-negative magnetic sorting (Miltenyi Biotec), respectively. Cells were cultured in adherence for 7-9 days in DMEM/F-12 medium, GlutaMAX (Gibco) with 10% FBS (Gibco), 10 μg/ml insulin (Sigma), 10 μg/ml hydrocortisone (Sigma) and 5 ng/ml epidermal growth factor (EGF, Sigma), in 10^−6M 4-OH-tamoxifen (Sigma, H7904), 10^−7M fulvestrant (ICI 182780, TOCRIS, 1047) or ethanol (control).
Dissociated single cells were suspended in Aldefluor assay buffer containing an ALDH substrate, bodipyaminoacetaldehyde (BAAA) at […], and incubated for 45 min at 37° C. To distinguish between ALDH-positive and -negative cells, a fraction of cells was incubated under identical conditions in the presence of a 2-fold molar excess of the ALDH inhibitor, diethylaminobenzaldehyde (DEAB). Mouse cells were excluded from the FACS analysis with anti-mouse MHC Class I (H-2Kd) antibody conjugated with Pacific Blue (BioLegend, 116616). 7-aminoactinomycin D (7AAD, BD) was added for dead cell exclusion. Data were acquired on a LSR II (BD) flow cytometer and analysed using the BD FACSDiva™ software.

ER+ BC = experiment: Tamoxifen trial study (SBII:2a), survival stratified by ALDH1; assay type: in vivo, human; conditions: 322 pre-menopausal ER+ BC patients; 2 years adjuvant tamoxifen vs no systemic treatment; ALDH1 dichotomised at median
ALDH1A1 = conditions: short-term administration to patients; analysis of published microarray data; cited from earlier work
[2] = test system: NOTCH4 intracellular domain; experiment: NOTCH4 intracellular domain Western Blot in MCF-7 endocrine-resistant cells; assay type: cell-based, human; conditions: endocrine-resistant models; 72 h
Procedure: MCF7, T47D and ZR-75-1 cell lines were purchased from American Tissue Culture Collection (ATCC) and cultured in DMEM/F-12, GlutaMAX (Gibco) with 10% FBS (Gibco). […] MCF7 resistant cell lines were authenticated by comparative karyotyping to ATCC-derived MCF7. Proteins were extracted with Protein Lysis Buffer (25 mM HEPES, 50 mM NaCl, 30 mM NaPP, 50 mM NaF, 1% Triton-X-100, 10% Glycerol, 5 mM EDTA, Protease Inhibitor cocktail, 1 μM PMSF). Lysates were placed on a rotator for 1 hour at 4° C., then were centrifuged at 10000 g at 4° C. for 10 min, and supernatants were collected. Protein concentrations were assessed using the BCA Protein Assay Kit (Thermo Scientific, 23225). Proteins were separated on a 10% gel (Biorad, 456-1033) by SDS-PAGE at 200V for 1 hour, and then were transferred on polyvinylidene difluoride (PVDF) membranes (BioRad, 170-4157) at 25 V/1,300 mA for 15 min using a Trans Blot Turbo (BioRad, 170-4155). Membranes were blocked in a solution of PBS containing 0.05% Tween-20 and 5% skimmed milk (Marvel) for 1 h at room temperature and primary antibodies were incubated overnight at 4° C. […]

[3] = test system: Notch target genes HEY1 and HES1; experiment: HEY1 and HES1 expression in TAMR, FULVR and parental MCF-7 cells; assay type: cell-based, human; conditions: TAMR and FULVR cell lines; 72 h
Procedure: MCF7, T47D and ZR-75-1 cell lines were purchased from American Tissue Culture Collection (ATCC) and cultured in DMEM/F-12, GlutaMAX (Gibco) with 10% FBS (Gibco). […] MCF7 resistant cell lines were authenticated by comparative karyotyping to ATCC-derived MCF7. Total RNA was extracted using the RNeasy Plus Mini Kit (QIAGEN, 74104) and the concentration and purity determined using an ND-1000 spectrophotometer (NanoDrop Technologies). Reverse transcription of 1 μg of RNA was performed with Oligo(dT) using the TaqMan Reverse Transcription Reagents from Applied Biosystems (N8080234). Samples were incubated on a thermal cycler (MJ Research) for 10 minutes at 25° C., 30 minutes at 48° C. and 5 minutes at 95° C. Quantitative real-time PCR reactions were set up in triplicate in 384-well plates and performed on the 7900 PCR machine (Applied Biosystems) using TaqMan® Universal PCR Master Mix (Applied Biosystems) and probes from Universal Probe Library (Roche). Conditions used for amplification of cDNA fragments were as follows: 95° C. for 5 min, 40 cycles of amplification-95 C for 15 sec, 60 C for 1 min. The expression levels were calculated using the ΔΔCt method and normalised to the housekeeping genes 36B4 and GAPDH. The sequences of the primers and probes used can be found in the table below.

[4] = test system: CBF1-Notch transcriptional activity; experiment: Notch transcriptional assay (10×CBF1-luciferase reporter); assay type: cell-based, human; conditions: TAMR and FULVR cell lines; 72 h
Procedure: MCF7 resistant cell lines were authenticated by comparative karyotyping to ATCC-derived MCF7. To measure the activation of Notch dependent transcription, cells were transfected with CBF1 firefly luciferase reporter (containing 10 copies of a CBF1 consensus sequence) and CMV-Renilla luciferase reporter. Plasmids were incubated with […] (Roche, 06366244001) in a ratio of 3:1 (μl of […] of DNA) in OptiMEM (Life Technologies, 11058-021) for 15 minutes, before addition to the culture media. After 48 hours cells were lysed with 1× Passive lysis buffer (5×, Promega, E 1941), put on the rocker for 15 minutes and luminescence was assayed with the Dual-Glo Luciferase assay system (Promega, E2920) following manufacturer's instructions. Luciferase activity was measured using a luminometer (Promega, Glomax Multi+ Detection System with Instinct Software). Luminescence of the firefly luciferase was normalised to that of the renilla luciferase.

CD44^+CD24^low+ BCSCs = conditions: Azzam et al., 2013; cited from earlier work

Question: What does the source list for CC/C(=C(\c1ccccc1)c1ccc(OCCN(C)C)cc1)c1ccccc1 [tamoxifen, (Z)-2-[4-(1,2-diphenylbut-1-enyl)phenoxy]-N,N-dimethylethanamine]?
Answer: ALDH enzymatic activity [1]: significant increase; survival benefit from tamoxifen by epithelial ALDH1 expression (ER+ BC): improvement in survival (ie. a response to treatment) was only seen in women with low epithelial ALDH1 expression

Question: Which results are given for C[C@]12CC[C@@H]3c4ccc(O)cc4C[C@@H](CCCCCCCCC[S+]([O-])CCCC(F)(F)C(F)(F)F)[C@H]3[C@@H]1CC[C@@H]2O (some centres unmarked) [fulvestrant]?
Answer: ALDH enzymatic activity [1]: significant increase; expression of the ALDH1A1 gene in breast tumors (ALDH1A1): significantly increased

Question: With CC(C)(C(=O)NCC(F)(F)C(F)(F)F)C(=O)N[C@@H]1C(=O)Nc2ccccc2-c2ccccc21 [RO4929097] as the molecule, how does the “levels of the active NOTCH4 intracellular domain” value [2] read?
Answer: The value was “effective in reducing”.

Question: What about the “HEY1 and HES1 expression” value [3] of the same molecule?
Answer: The value was “inhibited”.

Question: What about the CBF1-Notch transcriptional activity [4] of the same molecule?
Answer: The CBF1-Notch transcriptional activity was “inhibited”.

Question: What about the “mammosphere and tumor formation” value (CD44^+CD24^low+ BCSCs) of the same molecule?
Answer: The value was “reduce”.
